Patent US12527835B2, “Brevican-binding peptides for brain tumor imaging” (The Brigham and Women's Hospital, Inc., priority 2018, dated 2026)
Where a SMILES comes first, the peptide text is derived from it. [ ]: non-standard residue; d: D form.

How the values were obtained:
[1] = test system: BΔg-derived peptide (a.a. 535-548 of BΔg); test: Circular dichroism of peptide mixed with BΔg-derived peptide; type: binding, human; conditions: CD spectrometry, control peptide
Description: (§1) The BΔg peptide (or control BΔg(Scramble) peptide), BTP-7-FITC peptide, or a mixture of both (dissolved in Milli-Q H2O to a final concentration of 50 μM for each peptide) was loaded into a quartz cuvette (1 mm pathlength; Hellma Analytics Catalog #110-1-40). The cuvette was inserted into the Jasco J-815 circular dichroism spectropolarimeter, and the spectral scan measurement was conducted using the Spectrum Manager 2 software. The cuvette was rinsed with Milli-Q H2O in between each run. A blank (water) was run to establish the baseline for all samples. Scans were measured from 190 nm to 260 nm in a continuous mode (50-100 nm/min) at 20° C. To measure the BTP-7 structural change in the presence of either the BΔg (or control scramble) peptide, spectrum of the BΔg (or scramble) peptide alone was subtracted from the spectrum of the mixture, and then overlaid with the spectrum of BTP-7 alone for comparison. To investigate the structural changes in BTP-7 in a dose-dependent manner, 50 μM of BTP-7 peptide was loaded together with varying concentrations of either the BΔg (or control scramble) peptide. Similarly, the spectrum of each BΔg (or control scramble) peptide at the concentration was subtracted from the spectrum of the corresponding mixture, and then overlaid with the spectrum of BTP-7 alone for comparison.

[2] = molecular target: T1, BΔg-derived peptide (a.a. 535-548 of BΔg) (Homo sapiens, UniProt Q96GW7); test: as above; type: binding; conditions: CD spectrometry, 50 μM each peptide
T1 construct: purchased GenScript USA Inc; host or cells: chemical synthesis
Description: as §1

HEK-Bcan cells = test: Flow cytometry blocking study with 50× molar excess of unlabeled peptide; type: cell-based, human; conditions: fluorescein-conjugated peptide 1 μM

With CC[C@@H](C)[C@@H](NC(=O)[C@H](N)[C@H](C)O)C(=O)N[C@H](CCCNC(=N)N)C(=O)N[C@H](CCCCN)C(=O)N[C@H](CC(C)C)C(=O)N[C@@H](C(=O)N[C@H](CCCNC(=N)N)C(=O)N[C@H](Cc1c[nH]cn1)C(N)=O)C(C)C [BTP-8] (H-[dT][dI][dR][dK][dL][dV][dR][dH]-NH2; N-terminus and C-terminus assumed) the “peptide conformation in the presence of the scramble(BΔg) peptide” value [1] was “unaffected”, the “peptide conformation in the presence of the BΔg-derived peptide” value [2] was “unaffected” and the “uptake in HEK-Bcan cells in the presence of the blocking peptide” value (HEK-Bcan cells) was “reduced uptake”.
